We go through 4 compounds from patent publication US9044016B2, “N-thio-anthranilamide compounds and their use as pesticides” (BASF SE, priority 2011, dated 2015).

Holding throughout (type): in vivo
Experiment [1] has as its system Western Corn Rootworm (Diabrotica virgifera virgifera). Description: CE.2 Western corn rootworm assay, treated soil. The conditions noted are these: second-instar larvae, 3 days after infestation. On the procedure:
(§1) The activity summarized in the tables hereinbelow are given as percentage of mortality in comparison with untreated control
The active compound was applied in acetone at rates of 5 and 50 ppm a.i./soil (w/w). Treatments were applied in solution to sifted, North Carolina loamy sand (Sandhill soil) in a plastic bag. Treatments were thoroughly incorporated by sealing and shaking each bag by hand and allowing the solution to soak through the soil mass for at least 10 minutes before unsealing. The bags were then kept open in a fume hood overnight to evaporate the solvent from the soil.
One day after treatment (DAT) distilled water for moisture and water-soaked millet seed (Panicum miliaceum ‘white millet’) as a food source were added to each bag and mixed in thoroughly. 11 cm^3 of millet and soil mixture were dispensed into a 1 oz. plastic cup. Each cup was infested with 10 western corn rootworm second-instar larvae. Each cup or group of four cells was a replicate, and replication was 3×. The test was maintained in incubators at 26° C. in the dark. Mortality was evaluated 3 days after infestation (DAI) and mean percent mortality was calculated.

The subject of experiment [2] is Cowpea Aphid (Aphis craccivora). Description: B.1 Cowpea aphid, sprayed potted cowpea plants. The note with it: assessed after 72 hours, read-out: mortality in comparison with untreated controls. How it is done: The active compound is dissolved at the desired concentration in a mixture of 1:1 (vol:vol) distilled water:acetone. Surfactant (Alkamuls® EL 620) is added at a rate of 0.1% (vol/vol). The test solution is prepared at the day of use.
(§2) Potted cowpea plants were colonized with approximately 50 to 100 aphids of various stages by manually transferring a leaf tissue cut from infested plant 24 hours before application. Plants were sprayed after the pest population has been recorded. Treated plants are maintained on light carts at about 28° C. Percent mortality was assessed after 72 hours.

In experiment [3] the test system is Green Peach Aphid (Myzus persicae). Nature of the experiment: B.3 Green peach aphid, systemic, artificial diet in 96-well plates. The note with it: 72 h, adult aphids, 3 days, read-out: mortality in comparison with untreated controls. The source says: For evaluating control of green peach aphid (Myzus persicae) through systemic means the test unit consisted of 96-well-microtiter plates containing liquid artificial diet under an artificial membrane.
The compounds were formulated using a solution containing 75% v/v water and 25% v/v DMSO. Different concentrations of formulated compounds were pipetted into the aphid diet, using a custom built pipetter, at two replications.
After application, 5 to 8 adult aphids were placed on the artificial membrane inside the microtiter plate wells. The aphids were then allowed to suck on the treated aphid diet and incubated at about 23+1° C. and about 50+5% relative humidity for 3 days. Aphid mortality and fecundity was then visually assessed.

In experiment [4] the test system is Boll Weevil (Anthonomus grandis). Description: B.9 Boll weevil, insect diet with eggs in 96-well plates. The note with it: 120 h, egg and larval mortality, 5 days, read-out: mortality in comparison with untreated controls. On the procedure: For evaluating control of boll weevil (Anthonomus grandis) the test unit consisted of 96-well-microtiter plates containing an insect diet and 5-10 A. grandis eggs.
(§3) The compounds were formulated using a solution containing 75% v/v water and 25% v/v DMSO. Different concentrations of formulated compounds were sprayed onto the insect diet at 5 μl, using a custom built micro atomizer, at two replications.
After application, microtiter plates were incubated at about 25+1° C. and about 75+5% relative humidity for 5 days. Egg and larval mortality was then visually assessed.

The subject of experiment [5] is Mediterranean Fruitfly (Ceratitis capitata). Nature of the experiment: CE.3 Mediterranean fruitfly, comparison with prior art compounds. The conditions noted are these: 5 days; for Mediterranean fruitfly egg and larval mortality vs. untreated control (%): sprayed onto insect diet with eggs. How it is done:
as §1
(§4) For evaluating control of Mediterranean fruitfly (Ceratitis capitata) the test unit consisted of microtiter plates containing an insect diet and 50-80 C. capitata eggs.
as §3
After application, microtiter plates were incubated at about 28±1° C. and about 80±5% relative humidity for 5 days. Egg and larval mortality was then visually assessed.

Experiment [6] deals with Tobacco Budworm (Heliothis virescens). Description: B.8 Tobacco budworm I, insect diet with eggs in 96-well plates. The note with it: 120 h, egg and larval mortality, 5 days, read-out: mortality in comparison with untreated controls. How it is done:
For evaluating control of tobacco budworm (Heliothis virescens) the test unit consisted of 96-well-microtiter plates containing an insect diet and 15-25 H. virescens eggs.
The compounds were formulated using a solution containing 75% v/v water and 25% v/v DMSO. Different concentrations of formulated compounds were sprayed onto the insect diet at 10 μl, using a custom built micro atomizer, at two replications.
(§5) After application, microtiter plates were incubated at about 28+1° C. and about 80+5% relative humidity for 5 days. Egg and larval mortality was then visually assessed.

Experiment [7] concerns Cowpea Aphid (Aphis craccivora). Nature of the experiment: CE.1 Cowpea aphid, comparison with prior art compounds. The conditions noted are these: for % activity (mortality of Cowpea aphid in %, vs. untreated control): sprayed cowpea plants, assessed after 72 hours. How it is done:
as §1
The active compound was dissolved at the desired concentration in a mixture of 1:1 (vol:vol) distilled water:acetone. Surfactant (Alkamuls® EL 620) is added at a rate of 0.1% (vol/vol). The test solution was prepared at the day of use.
as §2

Experiment [8] has as its system Vetch Aphid (Megoura Viciae). Description: B.7 Vetch aphid, broad bean leaf disks in 24-well plates. The conditions noted are these: foliar, 120 h, sprayed leaf disks, adult aphids, 5 days, read-out: mortality in comparison with untreated controls. How it is done: For evaluating control of vetch aphid (Megoura viciae) through contact or systemic means the test unit consisted of 24-well-microtiter plates containing broad bean leaf disks.
The compounds were formulated using a solution containing 75% v/v water and 25% v/v DMSO. Different concentrations of formulated compounds were sprayed onto the leaf disks at 2.5 μl, using a custom built micro atomizer, at two replications.
After application, the leaf disks were air-dried and 5 to 8 adult aphids placed on the leaf disks inside the microtiter plate wells. The aphids were then allowed to suck on the treated leaf disks and incubated at about 23+1° C. and about 50+5% relative humidity for 5 days. Aphid mortality and fecundity was then visually assessed.

Experiment [9] concerns Diamond Back Moth (Plutella xylostella). Nature of the experiment: B.2 Diamond back moth, cabbage leaf dip. The conditions noted are these: foliar, dipped cabbage leaves, 3rd instar larvae, 72 hours after treatment, read-out: mortality in comparison with untreated controls. On the procedure:
The active compound is dissolved at the desired concentration in a mixture of 1:1 (vol:vol) distilled water:aceteone. Surfactant (Alkamuls® EL 620) is added at a rate of 0.1% (vol/vol).The test solution is prepared at the day of use.
Leaves of cabbage were dipped in test solution and air-dried. Treated leaves were placed in petri dish eslined with moist filter paper and inoculated with ten 3rd instar larvae. Mortality was recorded 72 hours after treatment. Feeding damages were also recorded using a scale of 0-100%.

For experiment [10], the system named is Orchid Thrips (Dichromothrips Corbetti). Nature of the experiment: B.5 Orchid thrips, floral-immersion technique. The conditions noted are these: dipped orchid flowers, adult thrips, 72 hours after treatment, read-out: mortality in comparison with untreated controls. On the procedure: Dichromothrips corbetti adults used for bioassay were obtained from a colony maintained continuously under laboratory conditions. For testing purposes, the test compound is diluted in a 1:1 mixture of acetone:water (vol:vol), plus 0.01% vol/vol Alkamuls® EL 620 surfactant.
Thrips potency of each compound was evaluated by using a floral-immersion technique. Plastic petri dishes were used as test arenas. All petals of individual, intact orchid flowers were dipped into treatment solution and allowed to dry. Treated flowers were placed into individual petri dishes along with about 20 adult thrips. The petri dishes were then covered with lids. All test arenas were held under continuous light and a temperature of about 28° C. for duration of the assay. After 3 days, the numbers of live thrips were counted on each flower, and along inner walls of each petri dish. The percentmortality was recorded 72 hours after treatment.

In experiment [11] the test system is Mediterranean Fruitfly (Ceratitis capitata). Nature of the experiment: B.4 Mediterranean fruitfly, insect diet with eggs in microtiter plates. The conditions noted are these: 120 h, egg and larval mortality, 5 days, read-out: mortality in comparison with untreated controls. On the procedure: as §4, §3, §5

Regarding `CCS(CC)=NC(=O)c1cc(Cl)cc(C)c1NC(=O)c1cc(C(F)(F)F)nn1-c1ncccc1Cl` [CC-2, reference compound], the “% activity (mortality of Western corn rootworm in %, vs. untreated control)” value in experiment [1] (5 ppm a.i./soil (w/w)) was 21%; in experiment [1] (50 ppm a.i./soil (w/w)), 93%.

As for `CC(C)S(=NC(=O)c1cc(Cl)cc(Cl)c1NC(=O)c1cc(C(F)(F)F)nn1-c1ncccc1Cl)C(C)C` [S.1, 2-(3-chloro-2-pyridyl)-N-[2,4-dichloro-6-[(bis-2-propyl-λ^4-sulfanylidene)carbamoyl]phenyl]-5-(trifluoromethyl)pyrazole-3-carboxamide], the mortality at 300 ppm in [2], in experiment [9] and in experiment [10] was > 75% each time. The mortality (commonly the percentage killed) at 2500 ppm in [3] was > 75%; in experiment [4], > 95%; in experiment [6], > 75%; in experiment [8], > 75%; in experiment [11] it was > 75%. For the same compound, the “Mediterranean fruitfly egg and larval mortality vs. untreated control (%)” value in experiment [5] (1415 ppm active ingredient) and in experiment [5] (2500 ppm active ingredient) was 100% throughout. Also, the “% activity (mortality of Cowpea aphid in %, vs. untreated control)” value in experiment [7] (100 ppm active ingredient), in [7] (300 ppm active ingredient) and in experiment [7] (500 ppm active ingredient) was 100% each time. Moreover, the “activity against Cowpea aphid in comparison with comparative compound CC-3” value in [7] (percent mortality after 72 hours) was “superior activity”. In addition, the “% activity (mortality of Western corn rootworm in %, vs. untreated control)” value in experiment [1] (5 ppm a.i./soil (w/w)) and in experiment [1] (50 ppm a.i./soil (w/w)) was 100% throughout.

Consider `O=C(N=S1CCCC1)c1cc(Cl)cc(Cl)c1NC(=O)c1cc(C(F)(F)F)nn1-c1ncccc1Cl` [S.3, 2-(3-chloro-2-pyridyl)-N-[2,4-dichloro-6-[(tetrahydro-λ^4-thiophenidene)carbamoyl]phenyl]-5-(trifluoromethyl)pyrazole-3-carboxamide], for which, in experiment [5] (egg and larval mortality), the “activity against Mediterranean fruitfly in comparison with comparative compound CC-1” value was “superior activity”.

Regarding `CCS(CC)=NC(=O)c1cc(Cl)cc(Cl)c1NC(=O)c1cc(C(F)(F)F)nn1-c1ncccc1Cl` [S.6, N-[4,6-dichloro-2-[(diethyl-λ^4-sulfanylidene)carbamoyl]-phenyl]-2-(3-chloro-2-pyridyl)-5-(trifluoromethyl)pyrazole-3-carboxamide], the mortality at 300 ppm in [2], in [9] and in [10] was > 75% each time. The mortality at 2500 ppm in experiment [3] is > 75%; in [4] it was > 95%; in experiment [6] it was > 75%; in experiment [8], > 75%. Besides, the “% activity (mortality of Western corn rootworm in %, vs. untreated control)” value in [1] (5 ppm a.i./soil (w/w)) and in [1] (50 ppm a.i./soil (w/w)) was 100% in each case.
